Target: T1, Androgen Receptor (AR) protein (Homo sapiens, UniProt P10275, T878A)
T1 construct: endogenous in cells; host or cells: LNCaP
Assay: Androgen Receptor (AR) protein degradation assay in LNCaP cells, western blotting
Type: cell-based
Conditions: 20 h; for inhibition at 0.01 µM: 0.01 μM compound; for inhibition at 0.1 µM: 0.1 μM compound; for inhibition at 1 µM: 1 μM compound; for inhibition at 10 µM: 10 μM compound
How it was run: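 AR protein level was detected by western blot (ECL) against GAPDH or β-actin controls, with 8 μg lysate protein loaded per lane after BCA quantification. Lysates came from LNCaP cells exposed to test compound for 20 h, following 3 days of growth in RPMI/10% FBS.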

T1 sequence (P10275 whole entry T878A): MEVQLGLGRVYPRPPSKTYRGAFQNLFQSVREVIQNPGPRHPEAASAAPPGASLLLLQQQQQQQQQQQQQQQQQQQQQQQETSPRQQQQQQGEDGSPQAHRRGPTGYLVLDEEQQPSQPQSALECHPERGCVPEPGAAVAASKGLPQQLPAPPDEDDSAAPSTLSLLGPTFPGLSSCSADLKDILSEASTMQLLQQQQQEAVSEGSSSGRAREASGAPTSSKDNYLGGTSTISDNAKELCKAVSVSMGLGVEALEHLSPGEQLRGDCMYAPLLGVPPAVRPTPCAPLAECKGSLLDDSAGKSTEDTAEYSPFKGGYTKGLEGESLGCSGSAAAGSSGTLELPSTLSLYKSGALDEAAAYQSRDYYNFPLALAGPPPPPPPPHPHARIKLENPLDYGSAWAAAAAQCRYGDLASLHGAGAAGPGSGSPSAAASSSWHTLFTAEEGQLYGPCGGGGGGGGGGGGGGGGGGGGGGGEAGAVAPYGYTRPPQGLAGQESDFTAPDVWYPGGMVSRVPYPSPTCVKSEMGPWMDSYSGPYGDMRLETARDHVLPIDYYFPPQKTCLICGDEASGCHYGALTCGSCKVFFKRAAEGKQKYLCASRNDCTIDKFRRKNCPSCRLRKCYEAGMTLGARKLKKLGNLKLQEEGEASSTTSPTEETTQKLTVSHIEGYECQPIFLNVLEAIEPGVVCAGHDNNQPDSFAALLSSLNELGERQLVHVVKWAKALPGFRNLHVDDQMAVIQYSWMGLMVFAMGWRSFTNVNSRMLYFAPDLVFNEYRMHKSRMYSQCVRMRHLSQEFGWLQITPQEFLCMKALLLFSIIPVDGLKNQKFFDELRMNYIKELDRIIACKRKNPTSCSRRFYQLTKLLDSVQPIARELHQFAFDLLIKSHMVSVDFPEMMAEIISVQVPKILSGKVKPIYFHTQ
T1 sequence (Q96SW2 whole entry partner): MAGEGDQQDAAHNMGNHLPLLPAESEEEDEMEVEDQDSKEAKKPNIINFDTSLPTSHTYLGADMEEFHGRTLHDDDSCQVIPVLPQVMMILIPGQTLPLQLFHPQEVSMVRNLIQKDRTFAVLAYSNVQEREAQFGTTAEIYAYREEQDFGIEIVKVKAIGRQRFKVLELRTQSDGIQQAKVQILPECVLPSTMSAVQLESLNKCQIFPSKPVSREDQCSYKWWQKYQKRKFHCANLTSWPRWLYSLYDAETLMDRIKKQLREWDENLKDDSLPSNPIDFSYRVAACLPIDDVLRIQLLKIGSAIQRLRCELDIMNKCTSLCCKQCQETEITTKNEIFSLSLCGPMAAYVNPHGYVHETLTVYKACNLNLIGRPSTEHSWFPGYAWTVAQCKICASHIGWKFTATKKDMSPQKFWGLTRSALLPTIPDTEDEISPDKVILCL

| Compound | inhibition at 0.01 µM [%] | inhibition at 0.1 µM [%] | inhibition at 1 µM [%] | inhibition at 10 µM [%] |
| --- | --- | --- | --- | --- |
| CN(CCC1CCN(c2ccc(NC(=O)C3CCN(c4ccc(C#N)c(C(F)(F)F)c4)CC3)nc2)CC1)C1CCN(c2ccc3c(c2)C(=O)N(C2CCC(=O)NC2=O)C3=O)CC1 (stereo not shown) [Example 102, 1-(4-cyano-3-(trifluoromethyl)phenyl)-N-(5-(4-(2-((1-(2-(2,6-dioxopiperidin-3-yl)-1,3-dioxoisoindolin-5-yl)piperidin-4-yl)(methyl)amino)ethyl)piperidin-1-yl)pyridin-2-yl)piperidine-4-carboxamide] | 35 | 90 | 92 |  |
| N#Cc1ccc(N2CCN(C(=O)Nc3ccc(N4CCC(CN5CC6(CCN(c7ccc8c(c7)C(=O)N(C7CCC(=O)NC7=O)C8=O)CC6)C5)CC4)nc3)CC2)cc1C(F)(F)F (stereo not shown) [Example 103, 4-(4-cyano-3-(trifluoromethyl)phenyl)-N-(6-(4-((7-(2-(2,6-dioxopiperidin-3-yl)-1,3-dioxoisoindolin-5-yl)-2,7-diazaspiro[3.5]nonan-2-yl)methyl)piperidin-1-yl)pyridin-3-yl)piperazine-1-carboxamide] | -9 | 15 | 44 | 58 |
| N#Cc1ccc(N2CCN(C(=O)Nc3ccc(N4CCC(CN5CC6(CCN(c7ccc8c(c7)C(=O)N(C7CCC(=O)NC7=O)C8=O)CC6)C5)CC4)nc3)CC2)cc1Cl (stereo not shown) [Example 104, 4-(3-chloro-4-cyanophenyl)-N-(6-(4-((7-(2-(2,6-dioxopiperidin-3-yl)-1,3-dioxoisoindolin-5-yl)-2,7-diazaspiro[3.5]nonan-2-yl)methyl)piperidin-1-yl)pyridin-3-yl)piperazine-1-carboxamide] | -2 | -5 | 36 | 59 |
| N#Cc1ccc(N2CCC(C(=O)Nc3ccc(N4CCC(CN5CCN(C6CCN(c7ccc(C(=O)NC8CCC(=O)NC8=O)nc7)CC6)CC5)CC4)cn3)CC2)cc1C(F)(F)F (stereo not shown) [Example 105, 5-(4-(4-((1-(6-(1-(4-cyano-3-(trifluoromethyl)phenyl)piperidine-4-carboxamido)pyridin-3-yl)piperidin-4-yl)methyl)piperazin-1-yl)piperidin-1-yl)-N-(2,6-dioxopiperidin-3-yl)picolinamide] | 43 | 82 | 92 |  |
| N#Cc1ccc(N2CCC(C(=O)Nc3ccc(N4CCC(CN5CCN(CC6CCN(c7ccc(C(=O)NC8CCC(=O)NC8=O)nc7)CC6)CC5)CC4)cn3)CC2)cc1C(F)(F)F (stereo not shown) [Example 106, 5-(4-((4-((1-(6-(1-(4-cyano-3-(trifluoromethyl)phenyl)piperidine-4-carboxamido)pyridin-3-yl)piperidin-4-yl)methyl)piperazin-1-yl)methyl)piperidin-1-yl)-N-(2,6-dioxopiperidin-3-yl)picolinamide] | 32 | 86 | 96 |  |
| N#Cc1ccc(N2CCC(C(=O)Nc3ccc(N4CCC(CCN5CCN(c6ccc(C(=O)NC7CCC(=O)NC7=O)nc6)CC5)CC4)cn3)CC2)cc1C(F)(F)F (stereo not shown) [Example 107, 5-(4-(2-(1-(6-(1-(4-cyano-3-(trifluoromethyl)phenyl)piperidine-4-carboxamido)pyridin-3-yl)piperidin-4-yl)ethyl)piperazin-1-yl)-N-(2,6-dioxopiperidin-3-yl)picolinamide] | 44 | 85 | 93 |  |
| C[C@@H]1CN(CC2CCN(c3ccc(C(=O)NC4CCC(=O)NC4=O)nc3)CC2)CCN1CC1CCN(c2ccc(NC(=O)C3CCN(c4ccc(C#N)c(C(F)(F)F)c4)CC3)nc2)CC1 (stereo partly drawn) [Example 108, 5-(4-(((R)-4-((1-(6-(1-(4-cyano-3-(trifluoromethyl)phenyl)piperidine-4-carboxamido)pyridin-3-yl)piperidin-4-yl)methyl)-3-methylpiperazin-1-yl)methyl)piperidin-1-yl)-N-(2,6-dioxopiperidin-3-yl)picolinamide] | 51 | 85 | 89 |  |
| C[C@H]1CN(CC2CCN(c3ccc(C(=O)NC4CCC(=O)NC4=O)nc3)CC2)CCN1CC1CCN(c2ccc(NC(=O)C3CCN(c4ccc(C#N)c(C(F)(F)F)c4)CC3)nc2)CC1 (stereo partly drawn) [Example 109, 5-(4-(((S)-4-((1-(6-(1-(4-cyano-3-(trifluoromethyl)phenyl)piperidine-4-carboxamido)pyridin-3-yl)piperidin-4-yl)methyl)-3-methylpiperazin-1-yl)methyl)piperidin-1-yl)-N-(2,6-dioxopiperidin-3-yl)picolinamide] | 30 | 82 | 83 |  |
| CN(CCN1CCN(c2ccc3c(c2)C(=O)N(C2CCC(=O)NC2=O)C3=O)CC1)CC1CCN(c2ccc(NC(=O)C3CCN(c4ccc(C#N)c(C(F)(F)F)c4)CC3)nc2)CC1 (stereo not shown) [Example 110, 1-(4-cyano-3-(trifluoromethyl)phenyl)-N-(5-(4-(((2-(4-(2-(2,6-dioxopiperidin-3-yl)-1,3-dioxoisoindolin-5-yl)piperazin-1-yl)ethyl)(methyl)amino)methyl)piperidin-1-yl)pyridin-2-yl)piperidine-4-carboxamide] | 56 | 89 | 88 |  |
| N#Cc1ccc(N2CCC(C(=O)Nc3ccc(N4CCN(C(=O)CCCCCNc5ccc6c(c5)C(=O)N(C5CCC(=O)NC5=O)C6=O)CC4)cn3)CC2)cc1C(F)(F)F (stereo not shown) [Example 111, 1-(4-cyano-3-(trifluoromethyl)phenyl)-N-(5-(4-(6-((2-(2,6-dioxopiperidin-3-yl)-1,3-dioxoisoindolin-5-yl)amino)hexanoyl)piperazin-1-yl)pyridin-2-yl)piperidine-4-carboxamide] | 29 | 70 | 67 | 67 |
| N#Cc1ccc(N2CCC(C(=O)Nc3ccc(N4CCN(C(=O)CCCCCNc5ccc6c(c5)C(=O)N(C5CCC(=O)NC5=O)C6=O)CC4)cn3)CC2)cc1Cl (stereo not shown) [Example 112, 1-(3-chloro-4-cyanophenyl)-N-(5-(4-(6-((2-(2,6-dioxopiperidin-3-yl)-1,3-dioxoisoindolin-5-yl)amino)hexanoyl)piperazin-1-yl)pyridin-2-yl)piperidine-4-carboxamide] | 9 | 55 | 50 | 48 |
| N#Cc1ccc(N2CCC(C(=O)Nc3ccc(N4CCN(CCCCCOc5ccc6c(c5)C(=O)N(C5CCC(=O)NC5=O)C6=O)CC4)cn3)CC2)cc1C(F)(F)F (stereo not shown) [Example 113, 1-(4-cyano-3-(trifluoromethyl)phenyl)-N-(5-(4-(5-((2-(2,6-dioxopiperidin-3-yl)-1,3-dioxoisoindolin-5-yl)oxy)pentyl)piperazin-1-yl)pyridin-2-yl)piperidine-4-carboxamide] | 55 | 92 | 87 |  |
| N#Cc1ccc(N2CCC(C(=O)Nc3ccc(N4CCN(CCCCCOc5ccc6c(c5)C(=O)N(C5CCC(=O)NC5=O)C6=O)CC4)cn3)CC2)cc1Cl (stereo not shown) [Example 114, 1-(3-chloro-4-cyanophenyl)-N-(5-(4-(5-((2-(2,6-dioxopiperidin-3-yl)-1,3-dioxoisoindolin-5-yl)oxy)pentyl)piperazin-1-yl)pyridin-2-yl)piperidine-4-carboxamide] | 41 | 89 | 91 |  |
| N#Cc1ccc(N2CCC(C(=O)Nc3ccc(N4CCN(CCCCOc5ccc6c(c5)C(=O)N(C5CCC(=O)NC5=O)C6=O)CC4)cn3)CC2)cc1C(F)(F)F (stereo not shown) [Example 115, 1-(4-cyano-3-(trifluoromethyl)phenyl)-N-(5-(4-(4-((2-(2,6-dioxopiperidin-3-yl)-1,3-dioxoisoindolin-5-yl)oxy)butyl)piperazin-1-yl)pyridin-2-yl)piperidine-4-carboxamide] | 18 | 89 | 87 |  |
| N#Cc1ccc(N2CCC(C(=O)Nc3ccc(N4CCN(CCCCOc5ccc6c(c5)C(=O)N(C5CCC(=O)NC5=O)C6=O)CC4)cn3)CC2)cc1Cl (stereo not shown) [Example 116, 1-(3-chloro-4-cyanophenyl)-N-(5-(4-(4-((2-(2,6-dioxopiperidin-3-yl)-1,3-dioxoisoindolin-5-yl)oxy)butyl)piperazin-1-yl)pyridin-2-yl)piperidine-4-carboxamide] | 24 | 43 | 53 |  |
| N#Cc1ccc(N2CCC(C(=O)Nc3ccc(N4CCN(CCOC5CCN(c6ccc7c(c6)C(=O)N(C6CCC(=O)NC6=O)C7=O)CC5)CC4)cn3)CC2)cc1C(F)(F)F (stereo not shown) [Example 117, 1-(4-cyano-3-(trifluoromethyl)phenyl)-N-(5-(4-(2-((1-(2-(2,6-dioxopiperidin-3-yl)-1,3-dioxoisoindolin-5-yl)piperidin-4-yl)oxy)ethyl)piperazin-1-yl)pyridin-2-yl)piperidine-4-carboxamide] | 35 | 84 | 94 |  |
| N#Cc1ccc(N2CCC(C(=O)Nc3ccc(N4CCN(CCOC5CCN(c6ccc7c(c6)C(=O)N(C6CCC(=O)NC6=O)C7=O)CC5)CC4)cn3)CC2)cc1Cl (stereo not shown) [Example 118, 1-(3-chloro-4-cyanophenyl)-N-(5-(4-(2-((1-(2-(2,6-dioxopiperidin-3-yl)-1,3-dioxoisoindolin-5-yl)piperidin-4-yl)oxy)ethyl)piperazin-1-yl)pyridin-2-yl)piperidine-4-carboxamide] | 34 | 62 | 88 |  |
| N#Cc1ccc(N2CCC(C(=O)Nc3ccc(N4CCN(CCC5CCN(c6ccc7c(c6)C(=O)N(C6CCC(=O)NC6=O)C7=O)CC5)CC4)cn3)CC2)cc1C(F)(F)F (stereo not shown) [Example 119, 1-(4-cyano-3-(trifluoromethyl)phenyl)-N-(5-(4-(2-(1-(2-(2,6-dioxopiperidin-3-yl)-1,3-dioxoisoindolin-5-yl)piperidin-4-yl)ethyl)piperazin-1-yl)pyridin-2-yl)piperidine-4-carboxamide] | 21 | 90 | 26 |  |

From patent publication US12122763B2, “Substituted piperidines for androgen receptor degradation” (UBIX THERAPEUTICS, INC., priority 2020, dated 2024)
